± gives the expanded uncertainty stated by the source.

For the data set the following is noted: Crystal; DTA.

As for `CCCCn1cc[n+](C)c1.[Cl-]` [1-butyl-3-methylimidazolium chloride], the Normal melting temperature was determined as 60.30 ± 5 °C.

The record behind these values is the NIST ThermoML archive (doi:10.1021/je400076x).
